Measured values reported in patent publication US20180036295A1, “METHODS FOR TREATING PROTEINOPATHIES” (Genzyme Corporation, priority 2015, published 2018).

What was measured:
Assay type in all cases: in vivo, mouse
[1] = Tissue distribution of Compound 1 in brain and liver after oral administration in food; details: Gba1^D409V/D409V mice
Experimental: Gba1^D409V/D409V mice (harboring a point mutation at residue 409 in the murine Gba1 gene) were bred under a protocol approved by the Institutional Animal Care and Use Committee. Treatments were administered as described and the animals were humanely sacrificed at pre-determined time points or upon reaching a humane endpoint.
A subset of Gba1^D409V/D409V mice received Compound 1 administered in food using a formulation calculated to provide 60 mg/kg/day. Drug administration was initiated when pups were weaned at 4 weeks of age and continued until euthanasia at 4 or 10 months of age. The concentration of Compound 1 in brain and liver tissues was determined by mass spectrometry (see e.g. Ramanathan et al. “The emergence of high-resolution MS as the premier analytical tool in the pharmaceutical bioanalysis arena” Bioanalysis. March 2012; 4(5):467-469).

Gba1^D409V/D409V mice [2] = assay: Novel object recognition (NOR) test in Gba1^D409V/D409V mice; details: 60 mg/kg/day in food from 4 weeks of age, tested at 3 months; FIG. 1
Experimental: (§1) Gba1^D409V/D409V mice were bred and treated according to Example 24.
(§2) Mice were fed the control diet or the Compound 1 diet as described in Example 24.
In the NOR test, […] wild type (WT) and Gba1^D409V/D409V mice were dosed with Compound 1 starting at 4 weeks of age and were subjected to the NOR test at 3 months (2 months post-treatment).
Mice were individually habituated to explore an open-field box for 5 minutes. During the first training session (T1), two identical objects were symmetrically placed into the open field 14 inches from each other. Animals were allowed to explore for 5 minutes. The number of investigations was recorded by a blinded investigator. After a 24 hour retention period, animals were tested (T2) for their recognition of a novel object. Mice were placed back into the open-field box for 5 minutes, and the time spent investigating the familiar and novel objects was recorded.
Statistical analyses were performed by Student's t-test or analysis of variance (ANOVA) followed by Newman-Keuls' post-hoc test. Preference for novelty was defined as investigating the novel object more than 50% of the time by a one-sample t-test. All statistical analyses were performed with GraphPad Prism v4.0 (GraphPad Software, San Diego, Calif.). Values of p<0.05 were considered significant.

Gba1^D409V/D409V mice [3] = assay: Fear conditioning (FC) tests in Gba1^D409V/D409V mice; details: ten month-old mice, 60 mg/kg/day in food
Text: as §1, §2
Ten month-old wild type (WT) and Gba1^D409V/D409V mice were subjected to FC memory tests. For the FC tests, mice were trained in four of the Med Associates® Near Infrared Fear Conditioning System chambers (St. Albans, Vt.). Mice were placed in the contextual fear chamber in “Context A,” which consists of lighting, a neutral background and a stainless steel grid floor. The mice were trained with a 3-trial delay-cued protocol as defined below. The mice were first given 2 minutes to explore the chamber in Context A before a conditioned stimulus (CS) of a 2000 Hz cue was given. Thirty seconds later a one second unconditioned stimulus (US) of 0.6 mA foot shock was applied. With an inter-trial interval (ITI) of 30 sec, this US-CS response was repeated three times. After a 24 hour retention period, mice were brought back to the testing room and habituated to the room for 1 hour. The mice were again placed in Context A for 5 minutes and freezing to the context was recorded. Freezing (defined as the lack of movement, except for respiration) was recorded using a near-infrared camera system. […] Again, freezing to the novel environment and the cue were assessed with the near infrared camera system. […]

[4] = system: mice overexpressing A53T α-synuclein; assay: Novel object recognition (NOR) test in A53T mice; details: A53T mice dosed from 6 weeks of age, tested at 4.5 months; FIG. 3
[5] = system: mice overexpressing A53T α-synuclein; assay: Fear conditioning (FC) tests in A53T mice; details: eight months of age
human A53T-α-synuclein = assay: Subcellular localization of α-synuclein in cortical tissue homogenates of A53T mice (serial fractionation, ELISA); details: cortex, 8 months of age
protein tau aggregates = assay: Hippocampal quantification of protein tau aggregates in A53T mice; details: 8 months of age, FIG. 14
Experimental: For histological analysis, mice were perfused with cold PBS. Brains were removed and post-fixed in 10% (v/v) neutral buffered formalin for 48 hours. Tissues were then placed in 30% sucrose, embedded and sectioned at 20 μm in a cryostat. Some tissues were pretreated with proteinase K (1:4 dilution; DAKO, Carpinteria, Calif.) for 7 minutes at room temperature to expose α-synuclein and other aggregated proteins. […] For α-synuclein aggregate quantification, a cyanine 3-tyramide signal amplification kit was used (PerkinElmer, Waltham, Mass.). […]
For morphometric analysis, sections were imaged with a SPOT camera (Diagnostic Instruments, Sterling Heights, Mich.) paired with a Nikon Eclipse E800 fluorescence microscope equipped with a 20λ objective lens. […] For ubiquitin and tau quantification, the same threshold was used for all images such that the aggregates were positively counted and the threshold area was recorded for each image in pixels. For α-synuclein quantification, each image was analyzed individually using a range of threshold values to quantify the area of the aggregates accurately and eliminate variable background signals. […] The percent threshold area was calculated and expressed as mean±SEM. […]

[6] = system: symptomatic Gba1^D409V/D409V mice; assay: NOR test in post-symptomatic Gba1^D409V/D409V mice; details: treatment from approximately 6 months of age, tested at 12 months, n=13, p<0.05; FIG. 16
Experimental: Gba1^D409V/D409V mice were bred and treated according to Example 24. Mice were fed the control diet or the Compound 1 diet as described in Example 24, except that drug administration was initiated when animals were approximately 6 months of age, and continued until euthanasia at 13 months of age.
Hippocampal memory was evaluated with the NOR test according to Example 25, except that the mice were tested at 6 months of age (before treatment) and again 6 months later, at 12 months of age (after treatment).

[7] = system: protein aggregates (ubiquitin, α-synuclein and/or protein tau); assay: Protein aggregation in brains of post-symptomatic Gba1^D409V/D409V mice (Example 33); details: administration initiated after symptoms of cognitive impairment, approximately 6 months of age
Experimental: Wild-type (WT) and Gba1^D409V/D409V mice are bred and treated substantially as described in Example 27, except that drug administration is initiated when animals are symptomatic for cognitive impairment, e.g. at approximately 6 months of age.
The accumulation of proteins (ubiquitin, α-synuclein and protein tau) is determined by hippocampal quantification and protein immunoreactivity substantially as described in Example 27.

Gba1^D409V/D409V mice [8] = assay: NOR and FC tests in Gba1^D409V/D409V mice with Compound 2 (Example 34); details: diet containing Compound 2
Experimental: Gba1^D409V/D409V mice are bred and treated substantially as described in Example 24. Mice are fed a control diet or a diet containing a quinuclidine compound substantially as described in Example 25, except that the compound administered is Compound 2.
The NOR test and the FC test are performed substantially as described in Example 25.

[9] = system: protein aggregates (ubiquitin, α-synuclein and/or protein tau); assay: Protein aggregation in brains of Gba1^D409V/D409V mice with Compound 2 (Example 35); details: diet containing Compound 2
Experimental: Wild-type (WT) and Gba1^D409V/D409V mice are fed the control diet or a diet containing a quinuclidine compound substantially as described in Example 27, except that the compound administered is Compound 2.
The accumulation of proteins (ubiquitin, α-synuclein and protein tau) is determined by hippocampal quantification and protein immuoreactivity as described in Example 27.

[10] = in food, 60 mg/kg/day, mass spectrometry

SMILES	concentration in the brain as percentage of the concentration in the liver ([1]; in food, 60 mg/kg/day)	tissue exposure in the cortex [1, 10] [ng/g tissue]	tissue exposure in the liver [1, 10] [ng/g tissue]	blood-brain barrier penetration ([1]; oral in food)	NOR test, target investigations of novel object during testing (T2) (Gba1^D409V/D409V mice [2])	FC test, contextual memory (freezing responses) (Gba1^D409V/D409V mice [3]; FIG. 2A)	FC test, cued memory (Gba1^D409V/D409V mice [3]; FIG. 2B)	NOR test, target investigations of novel object during testing (T2) [4]	FC test, contextual memory (freezing responses) ([5]; FIG. 4A)	FC test, cued memory ([5]; FIG. 4B)	level of insoluble α-synuclein (human A53T-α-synuclein; SDS-soluble fraction, n=14, P<0.01, FIG. 11C)	level of cytosolic soluble α-synuclein (human A53T-α-synuclein; Tris-soluble fraction, n=14, P=0.17, FIG. 11A)	level of membrane-associated α-synuclein (human A53T-α-synuclein; Triton-soluble fraction, n=14, P<0.05, FIG. 11B)	level of protein tau aggregates in hippocampus (protein tau aggregates)	NOR test, investigation of novel object during testing trial [6]	accumulation of protein aggregates (ubiquitin, α-synuclein and/or protein tau) in the brains [7]	memory deficit (NOR and FC tests) (Gba1^D409V/D409V mice [8])	accumulation of protein aggregates (ubiquitin, α-synuclein and/or protein tau) in the brains [9]
CC(C)(NC(=O)OC1CN2CCC1CC2)c1cccc(-c2ccc(F)cc2)c1 (stereo not drawn) [Compound 1, 1-azabicyclo[2.2.2]oct-3-yl [2-(4′-fluorobiphenyl-3-yl)propan-2-yl]carbamate]	approximately 2%	217±12	10512±603	crosses the blood-brain barrier	trend to reversal of their memory deficit	improved the freezing responses	no effect	trend to reversal of their memory deficit	improved the freezing responses	only a marginal effect	81±3 % of the control value	114±8 % of the control value	75±8 % of the control value	significant reduction	recovered the ability to investigate the unfamiliar object	measurable reduction		
CC(C)(NC(=O)O[C@@H]1CN2CCC1CC2)c1csc(-c2ccc(F)cc2)n1 [Compound 2, (S)-quinuclidin-3-yl 2-(2-(4-fluorophenyl)thiazol-4-yl)propan-2-ylcarbamate]																	improve memory deficit	measurable reduction
